# Where a SMILES comes first, the peptide text is derived from it.
# What was measured:
# [1] = system: normal cells derived from humans or mouse; assay: MTT growth inhibition in normal cells; assay type: cell-based, human; conditions: concentrations up to 10 µM
# Text: Figure S3. Anticancer effect of Pep #5-2 truncated and substitution mutants
# A) Names and peptide sequences of each mutant. Peptides corresponding to each Pep #5-2 truncated or substitution mutant are linked to a cell penetration peptide, iRGD (highlighted with yellow boxes). B-E) Cell growth inhibition profiles and GI50 values of each mutant in representative cancer cell lines. GI50 values estimated from duplicated data are expressed as means ± SD . Data are presented as means ± SD of two independent biological replicates. Anticancer effect of ACP52C, ACP52-51C, ACP52-52C, and ACP52-4C (B), amino acid substitution mutants of ACP52 -4C (C), and ACP52C, ACP52-4C, ACP52-31C, and ACP52-32C (D). Cell growth inhibition was teste d in cells using MTT assay over peptide dose at 48 h after peptide treatment, and GI50 values estimated from duplicated data are expressed as means ± SD. ( E) Summary of GI50 values of each mutant in representative cancer cell lines. GI 50 values estimated from duplicated data are expressed as means ± SD. Two-tailed unpaired Student’s t-tests, ***P < 0.001; ns: non-significant. […]
# U343 glioma cells = assay: U343 CDX mouse model; assay type: in vivo; conditions: intravenous injection every 2 or 3 days from day 14
# Experimental: Animal experiments were conducted in accordance with ethical guidelines, and all protocols were approved by the Institutional Animal Care and Use Committee under Hanyang University (approval numbers, 2014‐0016A, 2018‐0049A, 2018‐0207A, and 2019‐0169A), Chung‐Ang University (approval number, 2015‐00022), Chungbuk University (approval number, CBNUA‐1072‐17‐02), and Konkuk University (approval number, KU17130). To establish xenograft mice models, Hep3B, A431, U343, and PC9 cells were subcutaneously injected into the flank of Balb/c nude mice. For the MDA‐MB‐231 (LM1) cell line, it was implanted into the mammary fat pad of immunodeficient mice (NPG mice). […] Tumor volume was calculated using the formula of length × width^2)/2. […] The in vivo administration amount was determined based on the concentration of ACP52C confirmed at the cellular level, which was 2 µM. […] For ACP52C derivatives, the amount was adjusted to ensure a similar molar quantity of peptide injection, taking their molecular weights into account. For instance, in the case of ACP52CGK, ≈1.67 times the quantity was used compared to ACP52C to achieve an equivalent molar quantity. […] Hematoxylin and eosin (H&E)‐stained tissue sections were analyzed and photographed, and the representative histological images were recorded. […]
# [2] = system: normal cells such as mesenchymal stem cells and embryonic stem cells; assay: Cell death in normal cells; assay type: cell-based, human
# Experimental: performance of FQI1. Two micromoles of each Pep #5-2C and FQI1 were added to the cell culture for 2 days. Fractions of benzidine-positive stained cells were counted in MEL cells (n > 100 cells/group) treated with HMBA for 2 days. Hba-a2 gene expression at mRNA and protein levels were estimated by RT-qPCR […]
# and WB, respectively. […] ANOVA […]
# similar performance of Pep #5 or Pep #5-2. DNA-pull down assays for the [C4] complex (B) and the CBP […]
# complexes (C). […] Two-tailed […]
# formation by itself, surpassing the performance of FQI1. Co-IP assays for the [C4] complex (D) and the […]
# CBP complexes (E). […] Student’s […]
# than FQI1. G) Cell growth inhibition plots and GI50 values of FQI1 and ACP52C in various cancer cell lines and normal cells over peptide dose. GI50 values estimated from two independent biological replicates. […]
# hESCs were cultured on the Rhodamine -labeled MEF cells. Ten micromoles of each ACP52C and FQI1 were added to the cell culture for 3 days before capturing images of cultures.
Structure (SMILES),growth inhibition [1],tumor weight (U343 glioma cells),induction of cell death in normal cells [2]
CC(=O)N[C@@H](CC(N)=O)C(=O)N[C@@H](Cc1ccc(O)cc1)C(=O)N1CCC[C@H]1C(=O)N[C@@H](CCC(N)=O)C(=O)N[C@@H](CCCNC(=N)N)C(=O)N1CCC[C@H]1C(=O)N[C@@H](CS)C(=O)N[C@@H](CCCNC(=N)N)C(=O)NCC(=O)N[C@@H](CC(=O)O)C(=O)N[C@@H](CCCCN)C(=O)NCC(=O)N1CCC[C@H]1C(=O)N[C@@H](CC(=O)O)C(=O)N[C@@H](CS)C(N)=O [ACP52C] (Ac-NYPQRPCRGDKGPDC-NH2),did not show any growth inhibition,significantly reduced tumor weight,
"CCOc1ccccc1C1CC(=O)Nc2cc3c(cc21)OCO3 (stereo not drawn) [FQI1, Factor Quinolinone Inhibitor 1, reference compound]",,,potential to induce cell death

# Source: article PMC10667816, “A Cell‐Penetrant Peptide Disrupting the Transcription Factor CP2c Complexes Induces Cancer‐Specific Synthetic Lethality” (Advanced Science, 2023)
